Measured values published in patent US7087631B2, “Aryltetrazole compounds, and compositions thereof” (Inotek Pharmaceuticals Corporation, priority 2002, dated 2006).

Target: xanthine oxidase (Homo sapiens, UniProt P47989)
Experiment: Xanthine oxidase inhibitory activity, 96 well plate, kinetic reading at 295 nm
Assay type: biochemical
[1] = compound concentration 0.01 μM, 0.01 µM
[2] = compound concentration 0.1 μM, 0.1 µM

xanthine oxidase, sequence (P47989 whole entry, species assumed): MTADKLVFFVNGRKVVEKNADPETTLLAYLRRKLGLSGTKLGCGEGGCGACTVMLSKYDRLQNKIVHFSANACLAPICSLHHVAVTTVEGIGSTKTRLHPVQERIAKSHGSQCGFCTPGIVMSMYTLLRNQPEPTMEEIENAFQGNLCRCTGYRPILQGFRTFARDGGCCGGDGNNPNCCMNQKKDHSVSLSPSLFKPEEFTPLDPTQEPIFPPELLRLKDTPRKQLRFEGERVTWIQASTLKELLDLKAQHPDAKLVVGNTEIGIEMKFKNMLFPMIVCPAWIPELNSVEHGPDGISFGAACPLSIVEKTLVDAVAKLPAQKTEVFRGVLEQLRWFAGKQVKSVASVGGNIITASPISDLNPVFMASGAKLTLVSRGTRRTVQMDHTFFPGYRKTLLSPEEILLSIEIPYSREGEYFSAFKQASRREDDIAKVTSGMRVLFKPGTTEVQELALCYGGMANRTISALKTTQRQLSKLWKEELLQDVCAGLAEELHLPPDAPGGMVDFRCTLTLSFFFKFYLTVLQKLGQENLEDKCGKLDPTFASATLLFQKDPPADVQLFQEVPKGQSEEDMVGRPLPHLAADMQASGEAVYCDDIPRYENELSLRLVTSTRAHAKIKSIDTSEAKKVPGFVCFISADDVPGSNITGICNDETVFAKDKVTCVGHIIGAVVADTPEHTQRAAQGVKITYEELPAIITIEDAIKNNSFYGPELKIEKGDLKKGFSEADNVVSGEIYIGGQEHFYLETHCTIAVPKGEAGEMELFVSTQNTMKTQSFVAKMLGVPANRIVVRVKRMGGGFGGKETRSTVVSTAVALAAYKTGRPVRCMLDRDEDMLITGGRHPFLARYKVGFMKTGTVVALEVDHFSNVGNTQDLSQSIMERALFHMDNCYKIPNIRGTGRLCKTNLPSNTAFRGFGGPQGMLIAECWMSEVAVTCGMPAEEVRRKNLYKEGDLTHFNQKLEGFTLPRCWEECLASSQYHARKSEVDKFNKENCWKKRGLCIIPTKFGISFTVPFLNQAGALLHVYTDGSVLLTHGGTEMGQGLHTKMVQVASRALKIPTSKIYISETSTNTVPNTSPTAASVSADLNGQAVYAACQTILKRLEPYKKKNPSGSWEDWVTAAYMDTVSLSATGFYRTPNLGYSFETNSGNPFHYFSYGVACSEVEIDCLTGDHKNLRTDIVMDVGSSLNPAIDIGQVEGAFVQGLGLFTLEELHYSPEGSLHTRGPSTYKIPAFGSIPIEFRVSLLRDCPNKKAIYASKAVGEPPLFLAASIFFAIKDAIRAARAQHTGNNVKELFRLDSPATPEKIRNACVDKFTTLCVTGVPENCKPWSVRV

PERCENT XANTHINE OXIDASE INHIBITION (compound concentration 0.03 μM) | PERCENT XANTHINE OXIDASE INHIBITION (compound concentration 0.1 μM) | PERCENT XANTHINE OXIDASE INHIBITION (compound concentration 1 μM) | SMILES | other results
 |  | 100% | O=C(OCc1ccccc1I)c1ccc(-c2nnn[nH]2)cc1 [JQ] | PERCENT XANTHINE OXIDASE INHIBITION [1]: 18%; PERCENT XANTHINE OXIDASE INHIBITION [2]: 89%
 |  | 11% | O=C(O)c1ccc(-c2nnn[nH]2)cc1 [FY] | PERCENT XANTHINE OXIDASE INHIBITION (compound concentration 10 μM): 56%; PERCENT XANTHINE OXIDASE INHIBITION (compound concentration 100 μM): 91%
 |  | 14% | c1cncc(-c2ccc(-c3nnn[nH]3)cc2)c1 [HI] | PERCENT XANTHINE OXIDASE INHIBITION (compound concentration 10 μM): 24%; PERCENT XANTHINE OXIDASE INHIBITION (compound concentration 100 μM): 70%
36% | 33% | 64% | CCCCOc1ccc(NC(=O)c2ccc(-c3nnn[nH]3)cc2)cc1 [IQ] | 
19% | 30% | 79% | N#Cc1cc(-c2nnn[nH]2)ccc1C(=O)Nc1nccs1 [JI] | 
 | 73% | 95% | O=C(OCC(Cl)(Cl)Cl)c1ccc(-c2nnn[nH]2)cc1 [GV] | PERCENT XANTHINE OXIDASE INHIBITION (compound concentration 0.01 μM): 14%
 |  | 0% | O=S(=O)(NC12CC3CC(CC(C3)C1)C2)c1ccc(-c2nnn[nH]2)cc1 [HU] | 
 |  | 14% | COc1ccc2cc(-c3nnn[nH]3)ccc2c1 [JR] | PERCENT XANTHINE OXIDASE INHIBITION (compound concentration 10 μM): 56%; PERCENT XANTHINE OXIDASE INHIBITION (compound concentration 100 μM): 85%
 | 97% | 95% | O=C(OCCc1cccs1)c1ccc(-c2nnn[nH]2)cc1 [HQ] | PERCENT XANTHINE OXIDASE INHIBITION (compound concentration 0.05 μM): 53%
 |  | 100% | O=C(OCc1ccccc1I)c1ccc(-c2nnn[nH]2)cc1 [GX] | PERCENT XANTHINE OXIDASE INHIBITION [1]: 19%; PERCENT XANTHINE OXIDASE INHIBITION [2]: 84%
27% | 58% | 93% | COc1ccc(NC(=O)c2ccc(-c3nnn[nH]3)cc2)cc1 [IJ] | 
22% | 38% | 87% | CCc1cccc(NC(=O)c2ccc(-c3nnn[nH]3)cc2)c1 [IE] | 
 |  | 39% | COC(=O)c1ccc(-c2nnn[nH]2)cc1 [FW] | PERCENT XANTHINE OXIDASE INHIBITION (compound concentration 10 μM): 82%; PERCENT XANTHINE OXIDASE INHIBITION (compound concentration 100 μM): 100%
 | 9% | 22% | c1ccc(CCCOc2ccc(-c3nnn[nH]3)cc2)cc1 [IW] | 
 |  | 9% | CC(=O)c1ccc(-c2nnn[nH]2)cc1 [FU] | PERCENT XANTHINE OXIDASE INHIBITION (compound concentration 10 μM): 54%; PERCENT XANTHINE OXIDASE INHIBITION (compound concentration 100 μM): 92%
 |  | 78% | O=C(OCc1ccccc1)c1ccc(-c2nnn[nH]2)cc1 [GA] | PERCENT XANTHINE OXIDASE INHIBITION (compound concentration 10 μM): 100%; PERCENT XANTHINE OXIDASE INHIBITION (compound concentration 100 μM): 100%
 | 9% | 39% | O=C(OCCN1C(=O)CCC1=O)c1ccc(-c2nnn[nH]2)cc1 [GW] | PERCENT XANTHINE OXIDASE INHIBITION (compound concentration 0.01 μM): 5%
12% | 32% | 82% | CC(C)COc1ccc(-c2nnn[nH]2)cc1C#N [Compound JE] | 
 | 35% | 78% | CCC#CCOC(=O)c1ccc(-c2nnn[nH]2)cc1 [GQ] | PERCENT XANTHINE OXIDASE INHIBITION (compound concentration 0.01 μM): 0%
 |  | 4% | O=C(OCCN1CCCC1)c1ccc(-c2nnn[nH]2)cc1 [GL] | 
 |  | 0% | O=S(=O)(NC1CCCCC1)c1ccc(-c2nnn[nH]2)cc1 [HV] | 
 |  | 73% | CCCCOC(=O)c1ccc(-c2nnn[nH]2)cc1 [FX] | PERCENT XANTHINE OXIDASE INHIBITION (compound concentration 10 μM): 95%; PERCENT XANTHINE OXIDASE INHIBITION (compound concentration 100 μM): 95%
21% | 46% | 86% | COc1cccc(NC(=O)c2ccc(-c3nnn[nH]3)cc2)c1 [IL] | 
13% | 37% | 72% | O=C(O)Cc1cccc(NC(=O)c2ccc(-c3nnn[nH]3)cc2)c1 [ID] | 
 | 21% | 68% | c1cc(-c2nnn[nH]2)ccc1OCC1CCCCC1 [IN] | xanthine oxidase activity (result in words) (summary of the table): inhibit xanthine oxidase activity
32% | 62% | 89% | O=C(Nc1cccc(F)c1)c1ccc(-c2nnn[nH]2)cc1 [HW] | 
34% | 68% | 95% | O=C(Nc1ccc(Cl)c(Cl)c1)c1ccc(-c2nnn[nH]2)cc1 [JL] | 
 | 65% | 92% | O=C(OCC(F)(F)C(F)F)c1ccc(-c2nnn[nH]2)cc1 [GP] | PERCENT XANTHINE OXIDASE INHIBITION (compound concentration 0.01 μM): 9%
 | 12% | 46% | O=C(OCCN1CCOCC1)c1ccc(-c2nnn[nH]2)cc1 [GK] | PERCENT XANTHINE OXIDASE INHIBITION (compound concentration 0.01 μM): 3%

The remaining lines, values behind:

SMILES | PERCENT XANTHINE OXIDASE INHIBITION (compound concentration 0.03 μM) | PERCENT XANTHINE OXIDASE INHIBITION (compound concentration 0.1 μM) | PERCENT XANTHINE OXIDASE INHIBITION (compound concentration 1 μM) | other results
O=C(O)Cc1ccc(NC(=O)c2ccc(-c3nnn[nH]3)cc2)cc1 [II] | 20% | 45% | 90% | 
Brc1ccc(-c2nnn[nH]2)cc1 [FI] |  |  |  | PERCENT XANTHINE OXIDASE INHIBITION (compound concentration 10 μM): 21%; PERCENT XANTHINE OXIDASE INHIBITION (compound concentration 100 μM): 67%
O=C(Nc1cccc(I)c1)c1ccc(-c2nnn[nH]2)cc1 [HZ] | 20% | 41% | 88% | 
O=C(NCC1CCCCC1)c1ccc(-c2nnn[nH]2)cc1 [HS] | 8% | 16% | 55% | 
CCCCCCOC(=O)c1ccc(-c2nnn[nH]2)cc1 [GF] |  |  | 28% | PERCENT XANTHINE OXIDASE INHIBITION (compound concentration 10 μM): 79%; PERCENT XANTHINE OXIDASE INHIBITION (compound concentration 100 μM): 97%
N#Cc1cc(-c2nnn[nH]2)ccc1C(=O)Nc1cccnc1 [JH] | 23% | 41% | 86% | 
CC(C)COc1ccc(-c2nnn[nH]2)cc1 [JP] | 46% | 74% | 98% | 
O=C(c1ccc(-c2nnn[nH]2)cc1)N1CCNCC1 [HL] |  |  |  | PERCENT XANTHINE OXIDASE INHIBITION (compound concentration 100 μM): 0%
c1ccc(-c2nnn[nH]2)cc1 [FF] |  |  |  | PERCENT XANTHINE OXIDASE INHIBITION (compound concentration 100 μM): 10%
COc1ccc(-c2nnn[nH]2)c2ccccc12 [HM] |  |  |  | PERCENT XANTHINE OXIDASE INHIBITION (compound concentration 100 μM): 27%
C#CCCCOC(=O)c1ccc(-c2nnn[nH]2)cc1 [GM] |  | 28% | 76% | PERCENT XANTHINE OXIDASE INHIBITION (compound concentration 0.01 μM): 8%
Fc1ccc(-c2nnn[nH]2)cc1 [FM] |  |  |  | PERCENT XANTHINE OXIDASE INHIBITION (compound concentration 10 μM): 19%; PERCENT XANTHINE OXIDASE INHIBITION (compound concentration 100 μM): 78%
O=C(Nc1ccc(Cl)cc1Cl)c1ccc(-c2nnn[nH]2)cc1 [IY] | 26% | 47% | 86% | 
O=C(OCC12CC3CC(CC(C3)C1)C2)c1ccc(-c2nnn[nH]2)cc1 [GI] | 75% | 95% | 100% | 
O=C(Nc1ccc(-c2nnn[nH]2)cc1)c1ccccc1 [Compound IT] | 7% | 15% | 56% | 
CNC(=O)Nc1ccc(-c2nnn[nH]2)cc1 [FS] |  |  |  | PERCENT XANTHINE OXIDASE INHIBITION (compound concentration 100 μM): 10%
COc1cc(-c2nnn[nH]2)cc(OC)c1OC [HG] |  |  |  | PERCENT XANTHINE OXIDASE INHIBITION (compound concentration 100 μM): 22%

SMILES | PERCENT XANTHINE OXIDASE INHIBITION (compound concentration 0.03 μM) | PERCENT XANTHINE OXIDASE INHIBITION (compound concentration 0.1 μM) | PERCENT XANTHINE OXIDASE INHIBITION (compound concentration 1 μM) | other results
COc1ccccc1NC(=O)c1ccc(-c2nnn[nH]2)cc1 [IK] | 9% | 17% | 55% | 
CC(=O)c1cccc(NC(=O)c2ccc(-c3nnn[nH]3)cc2)c1 [Compound IA] | 31% | 54% | 90% | 
O=C(OC(C1CCCCC1)C1CCCCC1)c1ccc(-c2nnn[nH]2)cc1 [GZ] |  |  | 8% | 
O=C(OCc1ccco1)c1ccc(-c2nnn[nH]2)cc1 [HP] |  | 91% | 100% | PERCENT XANTHINE OXIDASE INHIBITION (compound concentration 0.05 μM): 41%
O=C(Nc1ccc(F)cc1)c1ccc(-c2nnn[nH]2)cc1 [Compound HX] | 37% | 59% | 92% | 
O=C(Oc1ccccc1)c1ccc(-c2nnn[nH]2)cc1 [GC] |  | 97% | 100% | PERCENT XANTHINE OXIDASE INHIBITION (compound concentration 0.05 μM): 52%
Fc1ccccc1-c1nnn[nH]1 [FP] |  |  |  | PERCENT XANTHINE OXIDASE INHIBITION (compound concentration 10 μM): 3%; PERCENT XANTHINE OXIDASE INHIBITION (compound concentration 100 μM): 21%
Clc1cccc(-c2nnn[nH]2)c1 [FG] |  |  |  | PERCENT XANTHINE OXIDASE INHIBITION (compound concentration 100 μM): 34%
Fc1ccc(-c2nnn[nH]2)cc1Cl [Compound HE] |  |  |  | PERCENT XANTHINE OXIDASE INHIBITION (compound concentration 100 μM): 33%
O=C(NCc1ccccc1)c1ccc(-c2nnn[nH]2)cc1 [JA] |  | 0% |  | 
O=C(Oc1cc[n+]([O-])cc1)c1ccc(-c2nnn[nH]2)cc1 [GN] |  |  | 9% | 
O=C(NCc1cccnc1)c1ccc(-c2nnn[nH]2)cc1 [HC] |  |  | 25% | 
O=C(OC1CCCCC1)c1ccc(-c2nnn[nH]2)cc1 [GH] | 65% |  |  | PERCENT XANTHINE OXIDASE INHIBITION [2]: 91%; PERCENT XANTHINE OXIDASE INHIBITION (compound concentration 1 μM, 1 µM): 100%
O=C(Nc1ccccc1)Nc1ccc(-c2nnn[nH]2)cc1 [IU] | 3% | 9% | 42% | 
O=C(NC12CC3CC(CC(C3)C1)C2)c1ccc(-c2nnn[nH]2)cc1 [HT] | 15% | 23% | 62% | 
O=C(OCC(C(F)(F)F)C(F)(F)F)c1ccc(-c2nnn[nH]2)cc1 [GS] |  | 68% | 95% | PERCENT XANTHINE OXIDASE INHIBITION (compound concentration 0.01 μM): 13%
